We go through ten compounds from patent publication US20230101743A1, “SUBSTITUTED TRIAZINE COMPOUNDS AND USES THEREOF” (MUSC FOUNDATION FOR RESEARCH DEVELOPMENT, priority 2020, published 2023).

One data set relates to Hepatic neutral lipid. Kind of data set: Neutral lipid staining (BODIPY 493/503) in iPSC-derived hepatocytes. The data set is classed as cell-based, human. The settings on record: 72 hours; DL-1 2 μg/mL, CP-346086 20 nM. Here is the method:
H. Human iPSC derived hepatocytes were treated with DL-1 (2 μg/mL) and MTTP inhibitor CP-346086 (20 nM) for 72 hours. […] (A) Hepatic neutral lipid was determined by staining with 2 μM of BODIPYTM 493/503 for 15 mins and fixed with 4% PFA for microscopy. Nuclei were stained blue by DAPI. Scale bar=100 μm. […] Data are shown as mean±SEM of ten replicates (n=10); ***p<0.001.
K3 iPSC-derived hepatocytes (Day 20) were treated with or without 2 μg/mL of DL-1 or 20 nM of CP-346086 (Sigma) for 72 hours with daily medium change. At the time-point of interest, cells were treated with 2 μM of BODIPY® 493/503 staining solution (ThermoFisher) and 5 μg/mL of Hoechst 33342 (ThermoFisher) in PBS at 37 degrees for 15 minutes. Cells were washed with sterile PBS three times and then fixed with 4% PFA. Fluorescence images were taken using Bio-rad Zoeυ Fluorescent Cell Imager (Bio-Rad) and KEYENCE BZ-X800E Fluorescence Microscope (KEYENCE). Integrated fluorescent intensity was normalized by total cell counts, which is determined by DAPI staining.

Data set [1] can be described thus: Solubilities in water and 1 x PBS buffer (UV-vis). The data set is classed as physicochemical. The settings on record: for Solubility in 1.0 ml PBS buffer: 1 × PBS buffer; for Solubility in 1.0 ml PBS buffer / Solubility in 1.0 ml water: 25° C.; for solubility comparison: both water or 1 x PBS buffer. Here is the method:
The molar extinction co-efficients of exemplary cholesterol lowering compounds were measured in 1 x PBS buffer. The compounds were first dissolved in dimethyl sulfoxide. Solutions with a 0.5 mg/ml concentration were then prepared in DMSO. These solutions were diluted further with 1 x PBS by 100-fold, resulting in solutions with a 5 ug/ml concentration. The resulted diluted solutions were then measured and scanned using a UV-vis spectrophotometer for ultra-violet absorbances between 240 nm to 400 nm, using a UV 96-well microplate. The maximum UV absorbances and corresponding wavelengths were recorded (Table 1). The absorbance values were subtracted by that of a blank, 1 x PBS buffer containing […]. The volume of the solutions for UV measurements was 300 ul and the depth of the solutions was 0.7 cm. The molar extinction co-efficients were then calculated based on formula
The solubilities of the exemplary cholesterol lowering compounds were measured in water and 1 x PBS buffer. The compounds were first stirred with water and 1 x PBS buffer individually at room temperature for 1 h. The suspensions were then centrifuged for 2 min. The top clear solutions were filtered through filter paper, resulting in mother liquids, which were centrifuged again and diluted with 1 x PBS buffer for 10-fold for the solubilities in water and 100-fold the solubilities in 1 x PBS buffer. The resulted solutions were measured using a UV-vis spectrophotometer for UV absorbances with the maximum absorbances. The values were subtracted by that of a blank, 1 x PBS buffer. The corrected absorbances were then used to calculate the corresponding concentrations using the formula (1) and extinction coefficients (Table 1) shown above. The individual concentrations were then used to calculate the solubilities in 1.0 mL of water and 1 x PBS buffer.
The compounds were dissolved in DMSO to either 50 mg/ml, 10 mg/ml or 5 mg/ml solutions, which were diluted to 0.5 mg/ml with DMSO. These solutions were then diluted to 5 ug/ml with 1 x PBS buffer. The resulted solutions were then measured in a UV-vis spectrophotometer for UV scanning from 240 nm to 400 nm at 25° C. The absorbance values were subtracted by that of a blank, 1 x PBS buffer containing DMSO. The total volume of the solutions was 300 uL and the path length for each well was 0.7 cm in a UV 96-well plate. The extinction coefficients of the compounds were then calculated based on molar concentrations and the corrected UV absorbances at the maximum absorption (Table 1).
The mixtures wer stirred for 1 h at room temperature, transferred to 1.5 mL Eppendorf tubes, and centrifuged for 2 min. The clear solutions were filtered through filter papers, affording clear solutions, which were centrifuged again for 2 min. The top clear solutions were diluted by 1 x PBS buffer by 10-fold for the solubilities in water and 100-fold for the solubilities in 1 x PBS buffer. The new clear solutions were then measured individually using a UV-vis spectrophotometer and a UV 96-well microplate. The absorbance values were subtracted by that of a blank, 1 x PBS buffer. Concentrations and solubilities of the compounds were then calculated using their extinct coefficients and the corrected UV absorbances at the maximum absorptions (Table 1).

Data set [2] deals with intracellular APOB, LAMP1, and SORTILIN
In words: Confocal immunofluorescence of intracellular APOB, LAMP1 and SORTILIN
The data set is classed as cell-based, human. As to conditions: 48 μg/mL, 24 hours. Here is the method: Human iPSC-derived hepatocytes (iPSC-Heps) were treated with 48 μg/mL of DL-9 for 24 hours. Immunofluorescence of intracellular APOB, LAMP1, and SORTILIN was detected by specific antibodies. […] Extracellular APOB was measured by ELISA analysis. APOB level was normalized to DMSO treated group (FIG. 13C). In FIG. 13D intracellular APOB was determined via western blot using a specific anti-APOB antibody. […] Data are shown as mean±SD of triplicates (n=3). Statistical analysis was performed using the student t-test.
For hepatic marker expression analysis, human iPSC-derived hepatocytes (Day 20) were treated with 2 μg/mL of DL-1 for 24 hours. Cells were fixed in 4% paraformaldehyde (PFA) and penetrated with 0.1% Triton-X-100. Cells were incubated with primary antibodies (ALB, 1:1000, Dako; HNF4-a, 1:1000, Santa Cruz) overnight at 4 degrees and then switched to secondary antibodies (Alexa Flour 488 goat anti-rabbit, 1:1000, Invitrogen; Alexa Flour 594 rabbit anti-mouse, 1:2000, Invitrogen). Images were taken using Bio-Rad Zoe™ Fluorescent Cell Imager (Bio-Rad). For intracellular APOB localization, iPSC-heps were treated with 0, 3, 12, 48 μg/mL of DL-9 for 24 hours, and cells were fixed in 4% PFA followed by 0.1% Triton-X-100 penetration. […] Integrated fluorescent intensity was normalized by total cell counts, which is determined by DAPI staining.

For the compound `O=C(Nc1ccc2c(c1)CCN(Cc1ncn[nH]1)C2)c1ccccc1-c1ccc(C(F)(F)F)cc1` [CP-346086, reference compound], the “hepatic lipid accumulation (neutral lipid level)” value in the data set on Hepatic neutral lipid is “significant increase of neutral lipid level”.

Take `CC(C)(C)c1cc(Nc2nc(S)nc(S)n2)c(O)c(C(C)(C)C)c1` (racemic) [DL-31, 6-(3,5-di-tert-butyl-2-hydroxyphenylamino)-1,3,5-triazine-2,4-dithiol]: the “solubility relative to that of DL-9 in 1 x PBS buffer” value in data set [1] (1 x PBS buffer) is ~5 fold. For the same compound, in data set [1], the “Solubility in 1.0 ml PBS buffer” value was 477 µg and the solubility comparison result was “better solubilities than that for DL-9”. For the same compound, in data set [1] (water), the “solubility relative to that of DL-9 in water” value is “about 4 fold” and the “Solubility in 1.0 ml water” value turned out to be 1.63 µg.

For the compound `COc1cc(Nc2nc(S)nc(S)n2)cc(OC)c1O` (racemic) [DL-32], in data set [1], the “Solubility in 1.0 ml PBS buffer” value worked out at 786 µg and the solubility comparison result is given as “better solubilities than that for DL-9”. In addition, in data set [1] (water), the “Solubility in 1.0 ml water” value came out at 2.01 µg.

As to `Oc1c(Cl)cc(Nc2nc(S)nc(S)n2)cc1Cl` (racemic) [DL-28, 6-(3,5-dichloro-4-hydroxyphenylamino)-1,3,5-triazine-2,4-dithiol], in data set [1], the “Solubility in 1.0 ml PBS buffer” value amounted to 348 µg and the solubility comparison entry was “better solubilities than that for DL-9”. For the same compound, the “Solubility in 1.0 ml water” value in data set [1] (water) was found to be 1.25 µg.

Turning to `CC(C)(C)c1cc(Nc2nc(S)nc(S)n2)cc(C(C)(C)C)c1O` [DL-9, {4-[(3,5-di-tert-butyl-4-hydroxyphenyl)amino]-6-sulfanidyl-1,3,5-triazin-2-yl}sulfanide], in data set [1], the “Solubility in 1.0 ml PBS buffer” value stood at 91 µg and the solubility comparison entry was “best solubility among the first three compounds”. The “Solubility in 1.0 ml water” value in data set [1] (water) was determined as 0.40 µg. The “colocalization of APOB and SORTILIN” value in data set [2] is “colocalization of APOB and SORTILIN”.

Turning to `CC(C)(C)c1cc(Nc2nc(S)nc(S)n2)cc(C(C)(C)C)c1OCCO` (racemic) [DL-27, 6-(3,5-di-tert-butyl-4-(2-hydroxyethoxy)-phenylamino)-1,3,5-triazine-2,4-dithiol], in data set [1], the “Solubility in 1.0 ml PBS buffer” value worked out at 257 µg and the solubility comparison result is “better solubilities than that for DL-9”. In addition, the “Solubility in 1.0 ml water” value in data set [1] (water) was 1.78 µg.

Consider `Sc1nc(S)nc(Nc2cc(Cl)cc(Cl)c2)n1` (racemic) [DL-5, 6-[(3,5-dichlorophenyl)amino]-1,3,5-triazine-2,4-dithiol], for which the “Solubility in 1.0 ml PBS buffer” value in data set [1] amounted to 61 µg. In data set [1] (water), the “Solubility in 1.0 ml water” value was determined as 0.27 µg.

Consider `C#CCOCCOCCOCCOCCOc1c(C(C)(C)C)cc(Nc2nc(S)nc(S)n2)cc1C(C)(C)C` [DL-33, 6-(3,5-di-tert-butyl-4-(2-(2-(2-(2-(2-propyn-1-yloxy)ethoxy)ethyoxy)etoxy)ethoxy)-phenylamino)-1,3,5-triazine-2,4-dithiol], for which, in data set [1], the “Solubility in 1.0 ml PBS buffer” value turned out to be 186 µg and the solubility comparison entry was “better solubilities than that for DL-9”. For the same compound, in data set [1] (water), the “Solubility in 1.0 ml water” value was determined as 1.18 µg.

Regarding `CC(C)(C)c1cc(C(C)(C)C)c(Nc2nc(S)nc(S)n2)cc1O` (racemic) [DL-30, 6-(2,4-di-tert-butyl-5-hydroxyphenylamino)-1,3,5-triazine-2,4-dithiol], in data set [1], the “Solubility in 1.0 ml PBS buffer” value is 459 µg and the solubility comparison result was “better solubilities than that for DL-9”. The “Solubility in 1.0 ml water” value in data set [1] (water) is 1.35 µg.

For `Cc1cc(Nc2nc(S)nc(S)n2)cc(C)c1O` (racemic) [DL-29, 6-(3,5-dimethyl-4-hydroxyphenylamino)-1,3,5-triazine-2,4-dithiol], in data set [1], the “Solubility in 1.0 ml PBS buffer” value came to 686 µg and the solubility comparison entry is recorded as “better solubilities than that for DL-9”. The “Solubility in 1.0 ml water” value in data set [1] (water) came out at 2.22 µg.
